Data set [1] can be described thus: Pharmacokinetic study of single subcutaneous or intravenous injection of FS-01 in rhesus monkey. It is filed as in vivo. The following applies: 1.2 mg/kg. The procedure: Detailed experiment method as follows: three rhesus monkeys, crossover design, with a washout period of more than two weeks. Rhesus monkey was administrated 1.2 mg/kg of FS-01 by subcutaneously or intravenously injection, 1 ml of blood sample were collected at different point of time (0, 1, 5, 15, 30 min, 1, 2, 4, 6, 8, 12, 24 and 48 h). Drug concentration at different time point in blood sample was quantitatively analyzed by LC\MS\MS, utilizing iodine labeled FS-01 as internal standard, C18 column, aqueous solution containing 0.1% TFA and acetonitrile as mobile phase. Pharmacokinetics analysis was carried out according to fitting model based on the concentration of FS-01, determined the half-life (T1/2) in plasma, bioavailability and other pharmacokinetics parameters (FIG. 1).

The nature of data set [2]: Pharmacokinetic study of single subcutaneous injection of pharmaceutical composition containing FS-01 in healthy volunteers. It is filed as in vivo, human. As for the experimental part: 3-period crossover Latin square design was employed, 12 subjects were randomly divided into three groups, four subjects per group, and were sequentially abdomenal and subcutaneously injected by pharmaceutical composition containing 10, 20, 30 mg of FS-01, doses are listed in Table 2. Blood samples were collected at 30-5 min pre-dose, 5, 15, 30 min, 1, 2, 4, 6, 8, 12, 24, 48 and 72 h after injection. The concentration of FS-01 in blood sample was quantitatively analyzed by LC\MS\MS.

Data set [3] relates to HIV. The data set is described as follows: Multidose subcutaneous injection once daily for 14 days in HIV positive patients (Example 4). In kind it is in vivo, human. The settings on record: 1-30 mg once daily. The procedure: Twenty-one subjects were divided into 5 groups, received pharmaceutical composition containing 1 mg, 5 mg, 10 mg, 20 mg, 30 mg FS-01 once daily, for 14 days. Determined the viral load before injection and after injection.

Data set [4] relates to HIV. The data set is described as follows: Multidose subcutaneous injection once daily for 28 days in HIV positive patients (Example 5). In kind it is in vivo, human. The following applies: 10 mg and 20 mg once daily. As for the experimental part: (§1) Nineteen HIV patients were divided into two groups, were subcutaneously injected with pharmaceutical composition containing 10 mg and 20 mg of FS-01 once daily, for 28 days. The data was analyzed together with that in Example 4.

Data set [5] is described as follows: Half-life of FS-01 in HIV patient. The settings on record: human, in vivo, subcutaneous, 20 mg. The procedure: as §1
It has been shown in the result that the pharmaceutical composition of the present invention has good safety profile. […] Plasma viral load in HIV infected patient with baseline less than <10,000 c/ml decreased by 1.2 log in 20 mg group 14 days after administration (see FIG. 3). And it is recommended for infected patient with baseline viral load more than 10,000 c/ml to receive combination treatment with other antiviral agents, such as antiretroviral inhibitors or protease inhibitors.

The test system of data set [6] is HIV. The following applies: HIV fusion assay; cited from earlier work.
The mark [7] stands for this setting: plasma, 24 h, read-out: C24 (plasma concentration at 24 h).
The mark [8] stands for this setting: healthy volunteers, 10, 20, 30 mg.

Several values for one entry are separate records, joined by “and”; a condition that tells them apart may be missing. Equal entries are not always repeated. Entries after “also recorded” stand apart in the source; their conditions may differ. Where two headings read alike, the source gives them in different places. Ends that are not written are not given here. A value given as a limit tells only on which side of the number the result lay.

Broadly, the Cmax is the maximum level reached in the sampled fluid or tissue. Usually half-life stands for how long it takes for the measured level to halve. As a reminder, the bioavailability is dose-corrected exposure relative to a reference, in per cent.

With “Ac-SWETWEREIENYTRQIYRILEESQEQQDRNERDLLE-NH2 [FS-01]”, the Tmax in data set [1] was 0.25 h-2 h; in data set [1] (plasma, read-out: Tmax), 0.25 to 2 h. In addition, the Cmax was 508 ng/mL and 108 nM in data set [1] (plasma); 104 ng/mL and 22 nM in data set [2] (human, plasma, sc, 10 mg, healthy volunteers, 10 mg (low dose), single subcutaneous injection); 213 ng/mL and 45.1 nM in data set [2] (human, plasma, sc, 20 mg, healthy volunteers, 20 mg (middle dose), single subcutaneous injection); 250 ng/mL and 52.9 nM in data set [2] (human, plasma, sc, 30 mg, healthy volunteers, 30 mg (high dose), single subcutaneous injection). Moreover, in data set [1] (setting [7]), the level at 24 h is above 9.8 ng/mL. Moreover, the level at time molar at 24 h in data set [1] (setting [7]) was above 2.07 nM. Also, the half-life in data set [1] (plasma, subcutaneous or intravenous injection) was 8.13 ± 3.1 h; in data set [2] (human, plasma, sc, healthy volunteers, single subcutaneous injection), 20 ± 18.6 h; in data set [5], 39 h. Moreover, the bioavailability in data set [1] (plasma, subcutaneous or intravenous injection, read-out: bioavailability (BA)) came to 50%. In data set [2] (setting [8]), the “clearance rate as dose increases” value is given as “did not slow down; also recorded: did not decrease”. In addition, the “pharmacokinetic process (linearity)” value in data set [2] (setting [8]) is “linear pattern; also recorded: linear relation”. The “plasma drug concentration after 72 hours” value in data set [2] (healthy volunteers, 72 hours after dosing) is “approaching baseline; also recorded: approached to baseline”. Also, the side effects result in the data set on HIV [3] is “No signs of substantial side effects”. In addition, the “side effects / safety profile” value with HIV [4] is reported as “No signs of substantial side effects”.
Consider “X-SWETWEREIENYTKQIYKILEESQEQQDRNEKDLLE-Z (not fully specified (N-terminus, C-terminus); printed as X-SWETWEREIENYTKQIYKILEESQEQQDRNEKDLLE-Z)”, for which the “EC50 relative to T-20” value in the data set on HIV [6] is listed as 20 times lower than T-20.

The record behind these values is US8603965B2, “Pharmaceutical composition for the prophylaxis and treatment of HIV infection and its use” (priority 2006, dated 2013).
